Results on 24 compounds are retold here after patent US8129537B2, “Compounds as PDE IV and TNF inhibitors” (Rhone-Poulenc Rorer Limited, priority 1993, dated 2012).

For the compound `COc1ccc(/C=C/c2c(Cl)cccc2Cl)cc1OC1CCCC1` [Compound GF, trans-1-(3-cyclopentyloxy-4-methoxyphenyl)-2-(2,6-dichlorophenyl)ethene], the melting point – broadly, the temperature of the solid-liquid transition – was in the range of 47 to 49 °C.

In the case of `COc1ccc(C(=O)Nc2c(Cl)cc(NC(C)=O)cc2Cl)cc1OC1CCCC1` [BU, N-(4-acetylamino-2,6-dichlorophenyl)-3-cyclopentyloxy-4-methoxybenzamide], the melting point was 250 to 252 °C. Then `COc1ccc(C(=O)Nc2c(Cl)cc(N)cc2Cl)cc1OC1CCCC1` [BS, N-(2,6-dichloro-4-aminophenyl)-3-cyclopentyloxy-4-methoxybenzamide], with 170 to 172 °C. Then `COc1ccc(C(=O)Nc2c(Cl)cc(C=O)cc2Cl)cc1OC1CCCC1` [BY, N-(2,6-dichloro-4-formylphenyl)-3-cyclopentyloxy-4-methoxy-benzamide], with 96 to 98 °C; and `COc1ncc(C(=O)Nc2c(Cl)cncc2Cl)cc1OC1CCCC1` [Compound CO, 5-cyclopentyloxy-N-(3,5-dichloropyrid-4-yl)-6-methoxynicotinamide], with 182 to 183 °C; and `COc1ncc(C(=O)Nc2c(F)cncc2F)cc1OC1CCCC1` [Compound CR, 5-cyclopentyloxy-N-(3,5-difluoropyrid-4-yl)-6-methoxynicotinamide], with 210 to 211 °C.

Turning to `COc1ccc(C(=O)Nc2c(Cl)cc(CO)cc2Cl)cc1OC1CCCC1` [BW, N-(2,6-dichloro-4-hydroxymethylphenyl)-3-cyclopentyloxy-4-methoxybenzamide], the melting point lay in the range of 174 to 176 °C. For the compound `O=C(Nc1c(Cl)cncc1Cl)c1cc(OC2CCCC2)c(OC(F)F)cn1` [Compound GO, N-(3,5-dichloropyridin-4-yl)-4-cyclopentyloxy-5-difluoromethoxypyridine-2-carboxamide], the melting point is 131 to 132 °C. Then `COc1cnc(C(=O)Cc2c(Cl)cncc2Cl)cc1OC1CCCC1` [Compound FG, 1-(4-cyclopentyloxy-5-methoxypyridin-2-yl)-2-(3,5-dichloropyridin-4-yl)ethanone], with 132 °C; and `CSc1ncc(C(=O)Cc2c(Cl)cncc2Cl)cc1OC(C)C` [Compound CW, 2-(3,5-dichloro-4-pyridyl)-1-(5-isopropyloxy-6-methylthio-3-pyridyl)ethanone], with 124 to 125 °C; and `COc1cnc(C(=O)Nc2c(Cl)cncc2Cl)cc1OC1CCCC1` [DA, N-(3,5-dichloropyrid-4-yl)-4-cyclopentyloxy-5-methoxypyridine-2-carboxamide], with 129 to 130 °C. Take `COc1cc(F)c(C(=O)Nc2c(Cl)cncc2Cl)cc1OC1CCCC1` [A, N-(3,5-dichloropyrid-4-yl)-3-cyclopentyloxy-6-fluoro-4-methoxybenzamide]: the melting point fell in the range of 143 to 144 °C. `Cc1ncc(C(=S)Nc2c(Cl)cncc2Cl)cc1OC(C)C` [Compound CV, N-(3,5-dichloro-4-pyridyl)-5-isopropyloxy-6-methylthionicotinamide]: the melting point lay within 167 to 168 °C. Then `COc1ccc(C(=O)Nc2c(Cl)cncc2Cl)cc1OC1C=CCC1` (racemic) [BI, (±)-N-(3,5-dichloropyrid-4-yl)-3-cyclopent-2-enyloxy-4-methoxybenzamide], with 177 to 178 °C; and `Cc1ncc(C(=S)Nc2c(Cl)cncc2Cl)cc1OC1CCCC1` [Compound CU, 5-cyclopentyloxy-N-(3,5-dichloro-4-pyridyl)-6-methylthionicotinamide], with 144 to 145 °C; and `COc1c[n+]([O-])c(C(=O)Nc2c(Cl)cncc2Cl)cc1OCC1CC1` [FZ, N-(3,5-dichloropyridin-4-yl)-4-cyclopropylmethoxy-5-methoxy-1-oxidopyridinium-2-carboxamide], with 178 to 180 °C. Then `COc1ncc(C(=O)Nc2c(Cl)cccc2Cl)cc1OC1CCCC1` [Compound CP, N-(2,6-dichlorophenyl)-5-cyclopentyloxy-6-methoxynicotinamide], with 145 to 146 °C. Then `COc1cc(F)c(C(=O)Cc2c(Cl)cncc2Cl)cc1OC1CCCC1` [Compound CH, 2-(3,5-dichloropyrid-4-yl)-1-(3-cyclopentyloxy-6-fluoro-4-methoxyphenyl)ethanone], with 115 to 116.5 °C; and `COc1ncc(C(=O)Cc2c(Cl)cncc2Cl)cc1OC1CCCC1` [Compound CT, 1-(5-cyclopentyloxy-6-methoxypyridin-3-yl)-2-(3,5-dichloropyrid-4-yl)ethanone], with 118 to 119 °C; and `COc1ccc(C(=O)Nc2c(Cl)cncc2Cl)nc1OC1CCCC1` [Compound CS, 6-cyclopentyloxy-N-(3,5-dichloropyrid-4-yl)-5-methoxypyridine-2-carboxamide], with 164 to 166 °C. With `COc1ccc(C(=O)C(=O)c2ccncc2)cc1OC1CCCC1` [Compound GK, 1-(3-cyclopentyloxy-4-methoxyphenyl)-2-(pyrid-4-yl)ethane-1,2-dione], the melting point fell in the range of 117 to 119 °C. Then `COc1ccc(C(=O)Nc2ccccc2S(C)(=O)=O)cc1OC1CCCC1` [BM, N-(2-methylsulfonylphenyl)-3-cyclopentyloxy-4-methoxybenzamide], with 119 to 121 °C; and `COc1ncc(C(=O)Nc2c(C)noc2C)cc1OC1CCCC1` [Compound CQ, 5-cyclopentyloxy-N-(3,5-dimethylisoxazol-4-yl)-6-methoxynicotinamide], with 139 to 140 °C. Then `COc1ccc(C(=O)Nc2c(Cl)cncc2Cl)cc1OC1CC=CC1` [BK, N-(3,5-dichloropyrid-4-yl)-3-cyclopent-3-enyloxy-4-methoxybenzamide], with 193 to 195 °C.
